Measured values taken from PubChem BioAssay (NCI).
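Cultured in 96-well plates, cells were exposed to test compound for 48 hours across five concentrations. Abbreviation: GI50, concentration required for 50% inhibition of growth. TGI: total growth inhibition.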

Assays:
Assay in all cases: growth of human tumour cells (NCI), 48 h
OVCAR-5 ovarian = system: OVCAR-5 ovarian
PC-3 prostate = system: PC-3 prostate
KM12 colon = system: KM12 colon
SW-620 colon = system: SW-620 colon
HCT-116 colon = system: HCT-116 colon
T-47D breast = system: T-47D breast
SF-295 CNS = system: SF-295 CNS
UACC-257 melanoma = system: UACC-257 melanoma
SR leukemia = system: SR leukemia
NCI-H522 lung = system: NCI-H522 lung
SNB-19 CNS = system: SNB-19 CNS
DU-145 prostate = system: DU-145 prostate
UO-31 renal = system: UO-31 renal
SK-MEL-5 melanoma = system: SK-MEL-5 melanoma
OVCAR-4 ovarian = system: OVCAR-4 ovarian
MDA-MB-435 = system: MDA-MB-435
MOLT-4 leukemia = system: MOLT-4 leukemia
SF-539 CNS = system: SF-539 CNS
HCC-2998 colon = system: HCC-2998 colon
786-0 renal = system: 786-0 renal
RPMI-8226 leukemia = system: RPMI-8226 leukemia
HS 578T breast = system: HS 578T breast
A549 NSCLC = system: A549 NSCLC
OVCAR-8 ovarian = system: OVCAR-8 ovarian
NCI/ADR-RES ovarian = system: NCI/ADR-RES ovarian
K-562 leukemia = system: K-562 leukemia
SK-MEL-2 melanoma = system: SK-MEL-2 melanoma
MDA-MB-231 breast = system: MDA-MB-231 breast

Compound: S=C(Nc1ccc(-c2nc3ccccc3[nH]2)cc1)Nc1ccc(-c2nc3ccccc3[nH]2)cc1
- GI50 (OVCAR-5 ovarian): > 100 µM
- TGI (OVCAR-5 ovarian): > 100 µM
- GI50 (PC-3 prostate): > 100 µM
- TGI (PC-3 prostate): > 100 µM
- GI50 (KM12 colon): 43.5 µM
- TGI (KM12 colon): > 100 µM
- GI50 (SW-620 colon): > 100 µM
- TGI (SW-620 colon): > 100 µM
- GI50 (HCT-116 colon): 55.4 µM
- TGI (HCT-116 colon): > 100 µM
- GI50 (T-47D breast): > 100 µM
- TGI (T-47D breast): > 100 µM
- GI50 (SF-295 CNS): 48.4 µM
- TGI (SF-295 CNS): > 100 µM
- GI50 (UACC-257 melanoma): > 100 µM
- TGI (UACC-257 melanoma): > 100 µM
- GI50 (SR leukemia): 63.4 µM
- TGI (SR leukemia): > 100 µM
- GI50 (NCI-H522 lung): 24.5 µM
- TGI (NCI-H522 lung): 99.4 µM
- GI50 (SNB-19 CNS): > 100 µM
- TGI (SNB-19 CNS): > 100 µM
- GI50 (DU-145 prostate): > 100 µM
- TGI (DU-145 prostate): > 100 µM
- GI50 (UO-31 renal): 31.7 µM
- TGI (UO-31 renal): > 100 µM
- GI50 (SK-MEL-5 melanoma): 37.1 µM
- TGI (SK-MEL-5 melanoma): > 100 µM
- GI50 (OVCAR-4 ovarian): > 100 µM
- TGI (OVCAR-4 ovarian): > 100 µM
- GI50 (MDA-MB-435): > 100 µM
- TGI (MDA-MB-435): > 100 µM
- GI50 (MOLT-4 leukemia): 43.8 µM
- TGI (MOLT-4 leukemia): > 100 µM
- GI50 (SF-539 CNS): > 100 µM
- TGI (SF-539 CNS): > 100 µM
- GI50 (HCC-2998 colon): 45.8 µM
- TGI (HCC-2998 colon): > 100 µM
- GI50 (786-0 renal): 89.7 µM
- TGI (786-0 renal): > 100 µM
- GI50 (RPMI-8226 leukemia): 71.8 µM
- TGI (RPMI-8226 leukemia): > 100 µM
- GI50 (HS 578T breast): > 100 µM
- TGI (HS 578T breast): > 100 µM
- GI50 (A549 NSCLC): > 100 µM
- TGI (A549 NSCLC): > 100 µM
- GI50 (OVCAR-8 ovarian): 59.6 µM
- TGI (OVCAR-8 ovarian): > 100 µM
- GI50 (NCI/ADR-RES ovarian): 66.9 µM
- TGI (NCI/ADR-RES ovarian): > 100 µM
- GI50 (K-562 leukemia): 83.4 µM
- TGI (K-562 leukemia): > 100 µM
- GI50 (SK-MEL-2 melanoma): > 100 µM
- TGI (SK-MEL-2 melanoma): > 100 µM
- GI50 (MDA-MB-231 breast): 41.8 µM
- TGI (MDA-MB-231 breast): > 100 µM
